Patent US6787534B2, “Sulfonamide-containing heterocyclic compounds” (Eisai Co., Ltd., priority 1999, dated 2004)
Converted amounts (≈) assume the structure as drawn.

Test system: aorta pieces of rat (angiogenesis, capillaries formed around the aorta)
Experiment: Antiangiogenic effect: inhibition of capillary formation around rat aorta pieces incubated in collagen
Format: cell-based, rat (Sprague-Dawley)
Conditions: rat thoracic aorta pieces in Type I collagen gel, MCDB 131 medium; capillaries counted on 7th day from addition of test compound; three-fold dilutions from 10 μg/ml; read-out: IC50 (50% inhibiting concentration of angiogenesis)
Description: Pharmacological Experimental Example 1, Antiangiogenic Effect
The inhibition degree of angiogenesis which was observed when aorta pieces of rat were incubated in collagen was defined as an antiangiogenic effect. That is, the thoracic aorta excised from male rat of Sprague-Dawley strain (10-12 weeks age) was washed with a Hanks' solution (Gibco BRL, Gaithersburg, USA) so that fat tissues around there were removed minutely. The aorta was incised to prepare pieces of 2 mm square and they were allowed to stand in a 24-well plate holding the endothelial cells upside. Then, 500 μl of neutralized Type I collagen (Cell Matrix Type I-A; manufactured by Nitta Gelatin) were poured over each well and allowed to stand at room temperature for about 20 minutes in a clean bench to solidify the gel. After confirming that the gel was solidified, 500 μl of MCDB 131 medium (manufactured by Chlorella Kogyo) were added thereto followed by incubating in a CO2 incubator (5% CO2) at 37° C. On the next day, the culture medium was exchanged with 500 μl of MCDB 131 medium containing the test compound and the incubation was continued. After three days, the medium was again exchanged with 500 μl of MCDB 131 medium containing the test compound and, at the stage of the 7th day from the initiation of addition of the test compound, numbers of capillaries formed around the aorta were counted under a microscope. The solution containing the test compound was prepared in a three-fold dilution system where 10 μg/ml was the highest concentration.
Inhibiting rate was calculated from the following formula and 50% inhibiting concentration (IC50) for each test compound was determined.
Inhibiting Rate (%)=(C−T)/Cx100
C: Numbers of capillaries when no compound was added
T: Numbers of capillaries when a compound was added Table 1

| SMILES | IC50 |
| --- | --- |
| O=S(=O)(Nc1cnc2c(Br)cccc2c1)c1cccnc1 [Example 1, N-(8-Bromoquinolin-3-yl)-3-pyridinesulfonamide] | 0.49 µg/mL (≈ 1.35 µM) |
| Cc1cncc(S(=O)(=O)Nc2ccc3c(Br)cccc3n2)c1 [Example 2, N-(5-Bromoquinolin-2-yl)-5-methyl-3-pyridinesulfonamide] | 0.74 µg/mL (≈ 1.96 µM) |
| N#Cc1ccc(S(=O)(=O)Nc2cnc3c(Br)cccc3c2)cc1 [Example 4, N-(8-Bromoquinolin-3-yl)-4-cyanobenzenesulfonamide] | 0.09 µg/mL (≈ 0.232 µM) |
| CCNS(=O)(=O)c1ccc(S(=O)(=O)Nc2cnc3c(Br)cccc3c2)cc1 [Example 6, N-(8-Bromoquinolin-3-yl)-4-(N-ethylsulfamoyl)benzenesulfonamide] | 0.12 µg/mL (≈ 0.255 µM) |
| O=S(=O)(Nc1cnc2c(Br)cccc2c1)c1ccc2c(c1)CCC2 [Example 11, N-(8-Bromoquinolin-3-yl)-5-indanesulfonamide] | 0.04 µg/mL (≈ 0.0992 µM) |
| O=S(=O)(Nc1cnc2c(I)cccc2c1)c1cncc2ccccc12 [Example 15, N-(8-Iodoquinolin-3-yl)-4-isoquinolinesulfonamide] | 0.87 µg/mL (≈ 1.89 µM) |
| N#Cc1ccc(S(=O)(=O)Nc2ccc3c(Cl)cccc3n2)cc1 [Example 24, 4-Cyano-N-(5-chloroquinolin-2-yl)-benzenesulfonamide] | 0.49 µg/mL (≈ 1.43 µM) |
| CCNS(=O)(=O)c1ccc(S(=O)(=O)Nc2ccc3c(Br)cccc3n2)cc1 [Example 27, N-(5-Bromoquinolin-2-yl)-4-(N-ethylsulfamoyl)benzenesulfonamide] | 0.08 µg/mL (≈ 0.17 µM) |
| N#Cc1ccc(S(=O)(=O)Nc2cnc3c(C(F)(F)F)cccc3c2)cc1 [Example 38, N-(8-Trifluoromethylquinolin-3-yl)-4-cyanobenzenesulfonmide] | 0.15 µg/mL (≈ 0.398 µM) |
| O=S(=O)(Nc1cnc2c(Br)cccc2c1)c1ccc2c(c1)SCCO2 [Example 47, N-(8-Bromoquinolin-3-yl) -4-oxa-7-thiochromansulfonamide] | 0.09 µg/mL (≈ 0.206 µM) |
| CC(=O)NCCc1ccc(S(=O)(=O)Nc2cnc3c(Br)cccc3c2)cc1 [Example 48, N-(8-Bromoquinolin-3-yl)-4-(2-acetamideethyl)benzenesulfonamide] | 0.35 µg/mL (≈ 0.781 µM) |
| O=S1(=O)CCCc2cc(S(=O)(=O)Nc3cnc4c(Br)cccc4c3)ccc21 [Example 50, N-(8-Bromoquinolin-3-yl) -1,1-dioxide-6-yl-sulfonamide] | 0.31 µg/mL (≈ 0.663 µM) |
| COc1ccc(S(=O)(=O)Nc2cnc3c(Br)cccc3c2)nn1 [Example 53] | 0.53 µg/mL (≈ 1.34 µM) |
| O=S(=O)(Nc1ccc2c(Br)cncc2c1)c1ccc(Cl)nc1 [Example 59, N-(4-Bromoisoquinolin-7-yl)-6-chloro-3-pyridinesulfonamide] | 0.2 µg/mL (≈ 0.502 µM) |
| N#Cc1ccc(S(=O)(=O)Nc2ccc3c(Cl)nccc3c2)cc1 [Example 61, 1-Chloro-6-(4-cyanobenzenesulfonylamino)isoquinoline] | 0.3 µg/mL (≈ 0.873 µM) |
| COc1nccc2cc(NS(=O)(=O)c3ccc(N)nc3)ccc12 [Example 69, 6-(2-Aminopyridin-5-ylsulfonylamino)-1-methoxyisoquinoline] | 0.15 µg/mL (≈ 0.454 µM) |
| COc1nccc2cc(NS(=O)(=O)c3ccc(-c4nccs4)cc3)ccc12 [Example 77, 1-Methoxy-6-(4-thiazol-2-ylbenzenesulfonylamino)isoquinoline] | 0.39 µg/mL (≈ 0.981 µM) |
| CCc1nccc2cc(NS(=O)(=O)c3ccc(Cl)cc3)ccc12 [Example 80, 6-(4-Chlorobenzenesulfonylamino)-1-ethylisoquinoline] | 0.2 µg/mL (≈ 0.577 µM) |
| CCc1cncc2ccc(NS(=O)(=O)c3ccc(Cl)cc3)cc12 [Example 81] | 0.85 µg/mL (≈ 2.45 µM) |
| N#Cc1nccc2cc(NS(=O)(=O)c3ccc(Cl)cc3)ccc12 [Example 84, 6-(4-Chlorobenzenesulfonylamino)-1-cyanoisoquinoline] | 0.14 µg/mL (≈ 0.407 µM) |
| C=Cc1cccc2nc(NS(=O)(=O)c3cccnc3)ccc12 [Example 91, N-(5-Vinylquinolin-2-yl)-3-pyridinesulfonamide] | 0.33 µg/mL (≈ 1.06 µM) |
| O=c1cc(C(F)(F)F)c2ccc(NS(=O)(=O)c3ccc(Cl)cc3)cc2o1 [Example 92, N-(4-Trifluoromethylcoumarin-7-yl)-4-chlorobenzenesulfonamide] | 0.2 µg/mL (≈ 0.495 µM) |
